According to patent US12263176B2, “Pharmaceutical liquid compositions of meloxicam” (SLAYBACK PHARMA LLC, priority 2020, dated 2025):

Columns and labels:
[1] = following oral administration; cited from earlier work
[2] = cited from earlier work
[3] = system: acute post-operative pain (Brennan) model in Sprague Dawley rats; assay: Acute post-operative pain (Brennan) model, paw withdrawal latency / mechanical hyperalgesia; assay type: in vivo; settings: 3 mg/kg IV
Protocol: Animal Study: Evaluation of Efficacy of Meloxicam Compositions in Acute Post-operative Pain (Brennan) Model in Sprague Dawley Rats.
The analgesic efficacy of Composition K was studied in comparison with Anjeso® and ketorolac tromethamine drug products in a rat acute post-operative pain model at a dose of 3 mg/kg administered by intravenous route.
Meloxicam compositions (Anjeso® & Composition K) & ketorolac drug products were tested in an acute post-operative (Brennan) pain model in rats after intravenous administration. Average paw withdrawal latency & mechanical hyperalgesia (pain assessment) parameters were assessed in rats after intravenous administration of vehicle (0.9% saline), ketorolac tromethamine (3 mg/kg), Anjeso® (3 mg/kg), Composition K (3 mg/kg). Evaluations began 30 minutes following surgery, and were continued for 240 minutes.
Mean paw withdrawal latency was between 8.6 to 8.9 across all the treatment groups. […] Average paw withdrawal latency in normal animals is 9.7 seconds whereas as it was 3.5 seconds in operated animals.

| Structure (SMILES) | time of maximum observed plasma concentration (Tmax) [1] [h] | solubility in methanol ([2]; methanol) | solubility in water ([2]; water) | increased average paw withdrawal latency compared with vehicle (0.9% saline) [3] [%] | effect on development of mechanical allodynia ([3]; from 45 minutes till 240 minutes of recording, statistically significant at 45, 90 and 120 minutes) |
| --- | --- | --- | --- | --- | --- |
| Cc1cnc(NC(=O)C2=C(O)c3ccccc3S(=O)(=O)N2C)s1 [Meloxicam, 4-hydroxy-2-methyl-N-(5-methyl-2-thiazolyl)-2H-1,2-benzothiazine-3-carbox-amide-1,1-dioxide] | 5 to 6 | very slightly soluble | practically insoluble |  |  |
| O=C(c1ccccc1)c1ccc2n1CCC2C(=O)O (centres unmarked) [ketorolac tromethamine] |  |  |  | 68 | significantly prevented the development of mechanical allodynia |
